Data reported in ChEMBL document CHEMBL1135146, “8-Methoxyquinoline-5-carboxamides as PDE4 inhibitors: a potential treatment for asthma” (Bioorg Med Chem Lett, 2002).

Columns and labels:
Phosphodiesterase 4 = Phosphodiesterase 4 (Homo sapiens, UniProt P27815+Q08499+Q07343+Q08493); assay: Inhibition of Phosphodiesterase 4 (PDE-4) from human U937 cells; format: cell-based; settings: u-937
[1] = biological target: Phosphodiesterase 3 (Homo sapiens) (UniProt Q14432+Q13370); assay: Inhibition of Phosphodiesterase 3 (PDE3) from human platelet at 20 uM
[2] = Tested for the half life period of the compound, intravenously; format: ADME, organism-based, Cavia porcellus; settings: guinea pig, in vivo, iv
[3] = Compound at a dose 5 mg/kg was administered orally to guinea pig and the pharmacokinetic parameter (Cmax) was reported; format: ADME, organism-based, Cavia porcellus; design: dose 5 mg/kg, route oral; settings: in vivo, po
[4] = Tested for the oral bioavailability of the compound; format: ADME, organism-based, Cavia porcellus; settings: guinea pig, in vivo, read-out: Bioavailabiility
[5] = Tested for the pharmacokinetic parameter in guinea pig, administered orally at 5 mg/kg; format: ADME, organism-based, Cavia porcellus; design: dose 5 mg/kg, route oral; settings: in vivo, po

IC50 (Phosphodiesterase 4) [µM] | SMILES | also measured
0.001 | COc1ccc(C(=O)Nc2c(Cl)cncc2Cl)c2cc(C(C)=O)oc12 | 
1.9 | COc1ccc(C(=O)Nc2ccncc2)c2cccnc12 | 
0.48 | COc1ccc(C(=O)Nc2c(Cl)cncc2Cl)c2c1nc(C(C)=O)n2C | 
0.29 | COc1ccc(C(=O)Nc2c(Cl)cncc2Cl)c2c1nc(C(F)(F)F)n2C | inhibition [1]: 11%
0.11 | COc1ccc(C(=O)Nc2ccncc2Cl)c2cccnc12 | 
0.17 | COc1ccc(C(=O)Nc2c(Cl)cncc2Cl)c2cccnc12 | half-life [2]: 36 min; Cmax [3]: 473 ng/mL; bioavailability [4]: 62%; AUC [5]: 925 ng·h/mL
0.12 | COc1ccc(C(=O)Nc2c(Cl)cncc2Cl)c2[nH]c(C(F)(F)F)nc12 | inhibition [1]: 43%
